Tests used:
Assay in all cases: relative viability (nuclei count vs DMSO), 5 days (fraction); higher = more cells survive
NCI-H647 = test system: NCI-H647
Procedure, shortened: (§1)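 Lung cancer cell lines, seeded in 1536-well plates, were treated the following day by pin tool with a single drug or with five library-drug doses (not always all listed) in √10 steps on top of a fixed anchor-drug dose. Cells were fixed and nuclei stained in one step after 5 days, and nuclei were counted. Relative viability is the nuclei count for treated wells divided by that for vehicle wells, reported as medians of duplicate plates.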

NCI-H1395 = test system: NCI-H1395
Procedure, shortened: as §1

HCC-44 = test system: HCC-44
Procedure, shortened: as §1

NCI-H2347 = test system: NCI-H2347
Procedure, shortened: as §1

NCI-H2126 = test system: NCI-H2126
Procedure, shortened: as §1

NCI-H596 = test system: NCI-H596
Procedure, shortened: as §1

BEN = test system: BEN
Procedure, shortened: as §1

NCI-H1993 = test system: NCI-H1993
Procedure, shortened: as §1

NCI-H838 = test system: NCI-H838
Procedure, shortened: as §1

NCI-H650 = test system: NCI-H650
Procedure, shortened: as §1

NCI-H522 = test system: NCI-H522
Procedure, shortened: as §1

LCLC-103H = test system: LCLC-103H
Procedure, shortened: as §1

EMC-BAC-2 = test system: EMC-BAC-2
Procedure, shortened: as §1

NCI-H727 = test system: NCI-H727
Procedure, shortened: as §1

201T = test system: 201T
Procedure, shortened: as §1

NCI-H23 = test system: NCI-H23
Procedure, shortened: as §1

NCI-H2087 = test system: NCI-H2087
Procedure, shortened: as §1

NCI-H3122 = test system: NCI-H3122
Procedure, shortened: as §1

NCI-H441 = test system: NCI-H441
Procedure, shortened: as §1

NCI-H2023 = test system: NCI-H2023
Procedure, shortened: as §1

LOU-NH91 = test system: LOU-NH91
Procedure, shortened: as §1

HARA = test system: HARA
Procedure, shortened: as §1

COc1cc2nccc(Oc3ccc(NC(=O)Nc4cc(C)on4)c(Cl)c3)c2cc1OC [Tivozanib] + O=C(c1cc(Cc2n[nH]c(=O)c3ccccc23)ccc1F)N1CCN(C(=O)C2CC2)CC1 [Olaparib] (partner 8 µM)
relative viability (NCI-H647; first compound 0.005 µM): 0.505 | relative viability (NCI-H647; first compound 0.01581 µM): 0.529 | relative viability (NCI-H647; first compound 0.05 µM): 0.63 | relative viability (NCI-H647; first compound 0.1581 µM): 0.56 | relative viability (NCI-H647; first compound 0.5 µM): 0.437 | relative viability (NCI-H1395; first compound 0.005 µM): 0.421 | relative viability (NCI-H1395; first compound 0.01581 µM): 0.443 | relative viability (NCI-H1395; first compound 0.05 µM): 0.476 | relative viability (NCI-H1395; first compound 0.1581 µM): 0.484 | relative viability (NCI-H1395; first compound 0.5 µM): 0.422 | relative viability (HCC-44; first compound 0.005 µM): 0.967 | relative viability (HCC-44; first compound 0.01581 µM): 0.911 | relative viability (HCC-44; first compound 0.05 µM): 0.998 | relative viability (HCC-44; first compound 0.1581 µM): 0.949 | relative viability (HCC-44; first compound 0.5 µM): 0.999 | relative viability (NCI-H2347; first compound 0.005 µM): 0.566 | relative viability (NCI-H2347; first compound 0.01581 µM): 0.65 | relative viability (NCI-H2347; first compound 0.05 µM): 0.608 | relative viability (NCI-H2347; first compound 0.1581 µM): 0.638 | relative viability (NCI-H2347; first compound 0.5 µM): 0.512 | relative viability (NCI-H2126; first compound 0.005 µM): 0.954 | relative viability (NCI-H2126; first compound 0.01581 µM): 0.907 | relative viability (NCI-H2126; first compound 0.05 µM): 1 | relative viability (NCI-H2126; first compound 0.1581 µM): 0.845 | relative viability (NCI-H2126; first compound 0.5 µM): 0.899 | relative viability (NCI-H596; first compound 0.005 µM): 0.621 | relative viability (NCI-H596; first compound 0.01581 µM): 0.696 | relative viability (NCI-H596; first compound 0.05 µM): 0.773 | relative viability (NCI-H596; first compound 0.5 µM): 0.706 | relative viability (BEN; first compound 0.005 µM): 0.979 | relative viability (BEN; first compound 0.01581 µM): 1.09 | relative viability (BEN; first compound 0.05 µM): 1.07 | relative viability (BEN; first compound 0.1581 µM): 1.03 | relative viability (BEN; first compound 0.5 µM): 0.888 | relative viability (NCI-H1993; first compound 0.005 µM): 0.849 | relative viability (NCI-H1993; first compound 0.01581 µM): 1.03 | relative viability (NCI-H1993; first compound 0.05 µM): 0.988 | relative viability (NCI-H1993; first compound 0.1581 µM): 0.692 | relative viability (NCI-H1993; first compound 0.5 µM): 1.1 | relative viability (NCI-H838; first compound 0.005 µM): 0.785 | relative viability (NCI-H838; first compound 0.01581 µM): 0.785 | relative viability (NCI-H838; first compound 0.05 µM): 0.825 | relative viability (NCI-H838; first compound 0.1581 µM): 0.828 | relative viability (NCI-H838; first compound 0.5 µM): 0.773 | relative viability (NCI-H650; first compound 0.005 µM): 0.321 | relative viability (NCI-H650; first compound 0.01581 µM): 0.359 | relative viability (NCI-H650; first compound 0.05 µM): 0.42 | relative viability (NCI-H650; first compound 0.1581 µM): 0.401 | relative viability (NCI-H650; first compound 0.5 µM): 0.323 | relative viability (NCI-H522; first compound 0.005 µM): 0.627 | relative viability (NCI-H522; first compound 0.01581 µM): 0.635 | relative viability (NCI-H522; first compound 0.05 µM): 0.651 | relative viability (NCI-H522; first compound 0.1581 µM): 0.591 | relative viability (NCI-H522; first compound 0.5 µM): 0.512 | relative viability (LCLC-103H; first compound 0.005 µM): 0.785 | relative viability (LCLC-103H; first compound 0.01581 µM): 0.783 | relative viability (LCLC-103H; first compound 0.05 µM): 0.734 | relative viability (LCLC-103H; first compound 0.1581 µM): 0.791 | relative viability (LCLC-103H; first compound 0.5 µM): 0.853 | relative viability (EMC-BAC-2; first compound 0.005 µM): 0.492 | relative viability (EMC-BAC-2; first compound 0.01581 µM): 0.543 | relative viability (EMC-BAC-2; first compound 0.05 µM): 0.469 | relative viability (EMC-BAC-2; first compound 0.1581 µM): 0.472 | relative viability (EMC-BAC-2; first compound 0.5 µM): 0.358 | relative viability (NCI-H727; first compound 0.005 µM): 0.678 | relative viability (NCI-H727; first compound 0.01581 µM): 0.787 | relative viability (NCI-H727; first compound 0.05 µM): 0.823 | relative viability (NCI-H727; first compound 0.1581 µM): 0.786 | relative viability (NCI-H727; first compound 0.5 µM): 0.74 | relative viability (201T; first compound 0.005 µM): 0.826 | relative viability (201T; first compound 0.01581 µM): 0.853 | relative viability (201T; first compound 0.05 µM): 0.821 | relative viability (201T; first compound 0.1581 µM): 0.875 | relative viability (201T; first compound 0.5 µM): 0.868 | relative viability (NCI-H23; first compound 0.005 µM): 0.363 | relative viability (NCI-H23; first compound 0.01581 µM): 0.288 | relative viability (NCI-H23; first compound 0.05 µM): 0.347 | relative viability (NCI-H23; first compound 0.5 µM): 0.253 | relative viability (NCI-H2087; first compound 0.005 µM): 0.542 | relative viability (NCI-H2087; first compound 0.01581 µM): 0.51 | relative viability (NCI-H2087; first compound 0.05 µM): 0.652 | relative viability (NCI-H2087; first compound 0.1581 µM): 0.683 | relative viability (NCI-H2087; first compound 0.5 µM): 0.713 | relative viability (NCI-H3122; first compound 0.005 µM): 0.616 | relative viability (NCI-H3122; first compound 0.01581 µM): 0.641 | relative viability (NCI-H3122; first compound 0.05 µM): 0.768 | relative viability (NCI-H3122; first compound 0.1581 µM): 0.684 | relative viability (NCI-H3122; first compound 0.5 µM): 0.606 | relative viability (NCI-H441; first compound 0.005 µM): 0.538 | relative viability (NCI-H441; first compound 0.01581 µM): 0.531 | relative viability (NCI-H441; first compound 0.05 µM): 0.525 | relative viability (NCI-H441; first compound 0.1581 µM): 0.432 | relative viability (NCI-H441; first compound 0.5 µM): 0.396 | relative viability (NCI-H2023; first compound 0.005 µM): 0.469 | relative viability (NCI-H2023; first compound 0.01581 µM): 0.476 | relative viability (NCI-H2023; first compound 0.05 µM): 0.454 | relative viability (NCI-H2023; first compound 0.1581 µM): 0.481 | relative viability (NCI-H2023; first compound 0.5 µM): 0.454 | relative viability (LOU-NH91; first compound 0.005 µM): 0.894 | relative viability (LOU-NH91; first compound 0.01581 µM): 0.902 | relative viability (LOU-NH91; first compound 0.05 µM): 0.932 | relative viability (LOU-NH91; first compound 0.1581 µM): 0.891 | relative viability (LOU-NH91; first compound 0.5 µM): 0.871 | relative viability (HARA; first compound 0.005 µM): 0.606 | relative viability (HARA; first compound 0.01581 µM): 1.07 | relative viability (HARA; first compound 0.05 µM): 0.763 | relative viability (HARA; first compound 0.1581 µM): 1.15 | relative viability (HARA; first compound 0.5 µM): 0.893

Reference: the supplement of paper PMC10307832
